Data published in ChEMBL document CHEMBL3525923, “Identification of the metabolites of the antioxidant flavonoid 7-mono-O-(β-hydroxyethyl)-rutoside in mice” (Drug Metab Dispos, 2011).

Legend:
[1] = Drug level in BALB/c mouse bile treated with 7-mono-O-(beta-hydroxyethyl)-rutoside assessed as relative metabolite level at 500 mg/kg, ip measured after 60 mins by LC-DAD-TOF-MS analysis; type: ADME, organism-based; set-up: dose 500 mg/kg, route intraperitoneal; settings: in vivo, 1 h
[2] = Retention time of the compound by LC-DAD-TOF-MS analysis; type: physicochemical
[3] = Drug level in BALB/c mouse bile assessed as compound formation treated with monoHER at 500 mg/kg, ip measured after 240 mins by LC-DAD-TOF-MS analysis; type: ADME, organism-based; set-up: dose 500 mg/kg, route intraperitoneal; settings: in vivo, 4 h
[4] = Drug level in BALB/c mouse bile assessed as compound formation treated with monoHER at 500 mg/kg, ip measured after 60 mins by LC-DAD-TOF-MS analysis; type: ADME, organism-based; set-up: dose 500 mg/kg, route intraperitoneal; settings: in vivo, 1 h
[5] = Half life in mouse plasma; type: ADME, cell-free
[6] = Half life in mouse heart; type: ADME
[7] = Drug metabolism in BALB/c mouse bile assessed as 2-(3,4-dimethoxyphenyl)-5-hydroxy-7-(2-hydroxyethoxy)-3-((2S,3R,4S,5S,6R)-3,4,5-trihydroxy-6-(((2R,3R,4R,5R,6S)-3,4,5-trihydroxy-6-methyltetrahydro-2H-pyran-2-yloxy)methyl)tetrahydro-2H-pyran-2-yloxy)-4H-chromen-4-one formation at 500 mg/kg, ip measured after 60 mins by LC-DAD-TOF-MS analysis; type: ADME, organism-based; set-up: dose 500 mg/kg, route intraperitoneal; settings: in vivo, 1 h
[8] = Drug metabolism in BALB/c mouse bile assessed as (2S,2'S,3S,3'S,4S,4'S,5R,5'R,6S,6'S)-6,6'-(4-(5-hydroxy-7-(2-hydroxyethoxy)-4-oxo-3-((2S,3R,4S,5S,6R)-3,4,5-trihydroxy-6-(((2R,3R,4R,5R,6S)-3,4,5-trihydroxy-6-methyltetrahydro-2H-pyran-2-yloxy)methyl)tetrahydro-2H-pyran-2-yloxy)-4H-chromen-2-yl)-1,2-phenylene)bis(oxy)bis(3,4,5-trihydroxytetrahydro-2H-pyran-2-carboxylic acid) formation at 500 mg/kg, ip measured after 60 mins by LC-DAD-TOF-MS analysis; type: ADME, organism-based; set-up: dose 500 mg/kg, route intraperitoneal; settings: in vivo, 1 h
[9] = Drug metabolism in BALB/c mouse bile assessed as 5-hydroxy-2-(3-hydroxy-4-methoxyphenyl)-7-(2-hydroxyethoxy)-3-((2S,3R,4S,5S,6R)-3,4,5-trihydroxy-6-(((2R,3R,4R,5R,6S)-3,4,5-trihydroxy-6-methyltetrahydro-2H-pyran-2-yloxy)methyl)tetrahydro-2H-pyran-2-yloxy)-4H-chromen-4-one formation at 500 mg/kg, ip measured after 60 mins by LC-DAD-TOF-MS analysis; type: ADME, organism-based; set-up: dose 500 mg/kg, route intraperitoneal; settings: in vivo, 1 h
[10] = Drug metabolism in BALB/c mouse bile assessed as 2-(3,4-dimethoxyphenyl)-5-hydroxy-7-(2-hydroxyethoxy)-3-((2S,3R,4S,5S,6R)-3,4,5-trihydroxy-6-(hydroxymethyl)tetrahydro-2H-pyran-2-yloxy)-4H-chromen-4-one formation at 500 mg/kg, ip measured after 240 mins by LC-DAD-TOF-MS analysis; type: ADME, organism-based; set-up: dose 500 mg/kg, route intraperitoneal; settings: in vivo
[11] = Drug metabolism in BALB/c mouse bile assessed as 2-(5-hydroxy-2-(3-hydroxy-4-methoxyphenyl)-4-oxo-3-((2S,3R,4S,5S,6R)-3,4,5-trihydroxy-6-(((2R,3R,4R,5R,6S)-3,4,5-trihydroxy-6-methyltetrahydro-2H-pyran-2-yloxy)methyl)tetrahydro-2H-pyran-2-yloxy)-4H-chromen-7-yloxy)acetic acid formation at 500 mg/kg, ip measured after 60 mins by LC-DAD-TOF-MS analysis; type: ADME, organism-based; set-up: dose 500 mg/kg, route intraperitoneal; settings: in vivo, 1 h
[12] = Drug metabolism in BALB/c mouse bile assessed as 2-(2-(3,4-dihydroxyphenyl)-5-hydroxy-4-oxo-3-((2S,3R,4S,5S,6R)-3,4,5-trihydroxy-6-(((2R,3R,4R,5R,6S)-3,4,5-trihydroxy-6-methyltetrahydro-2H-pyran-2-yloxy)methyl)tetrahydro-2H-pyran-2-yloxy)-4H-chromen-7-yloxy)acetic acid formation at 500 mg/kg, ip measured after 60 mins by LC-DAD-TOF-MS analysis; type: ADME, organism-based; set-up: dose 500 mg/kg, route intraperitoneal; settings: in vivo, 1 h
[13] = Drug metabolism in BALB/c mouse bile assessed as (2S,3S,4S,5R,6S)-6-(5-(7-(carboxymethoxy)-5-hydroxy-4-oxo-3-((2S,3R,4S,5S,6R)-3,4,5-trihydroxy-6-(((2R,3R,4R,5R,6S)-3,4,5-trihydroxy-6-methyltetrahydro-2H-pyran-2-yloxy)methyl)tetrahydro-2H-pyran-2-yloxy)-4H-chromen-2-yl)-2-methoxyphenoxy)-3,4,5-trihydroxytetrahydro-2H-pyran-2-carboxylic acid formation at 500 mg/kg, ip measured after 60 mins by LC-DAD-TOF-MS analysis; type: ADME, organism-based; set-up: dose 500 mg/kg, route intraperitoneal; settings: in vivo, 1 h
[14] = Drug metabolism in BALB/c mouse bile assessed as (2S,3S,4S,5R,6S)-6-(5-(7-(carboxymethoxy)-5-hydroxy-4-oxo-3-((2S,3R,4S,5S,6R)-3,4,5-trihydroxy-6-(((2R,3R,4R,5R,6S)-3,4,5-trihydroxy-6-methyltetrahydro-2H-pyran-2-yloxy)methyl)tetrahydro-2H-pyran-2-yloxy)-4H-chromen-2-yl)-2-hydroxyphenoxy)-3,4,5-trihydroxytetrahydro-2H-pyran-2-carboxylic acid formation at 500 mg/kg, ip measured after 60 mins by LC-DAD-TOF-MS analysis; type: ADME, organism-based; set-up: dose 500 mg/kg, route intraperitoneal; settings: in vivo, 1 h
[15] = Drug metabolism in BALB/c mouse bile assessed as (S)-4-amino-5-((R)-1-(carboxymethylamino)-3-(2,3-dihydroxy-6-(5-hydroxy-7-(2-hydroxyethoxy)-4-oxo-3-((2S,3R,4S,5S,6R)-3,4,5-trihydroxy-6-(((2R,3R,4R,5R,6S)-3,4,5-trihydroxy-6-methyltetrahydro-2H-pyran-2-yloxy)methyl)tetrahydro-2H-pyran-2-yloxy)-4H-chromen-2-yl)phenylthio)-1-oxopropan-2-ylamino)-5-oxopentanoic acid formation at 500 mg/kg, ip measured after 60 mins by LC-DAD-TOF-MS analysis; type: ADME, organism-based; set-up: dose 500 mg/kg, route intraperitoneal; settings: in vivo, 1 h
[16] = Drug metabolism in BALB/c mouse bile assessed as (2S,3S,4S,5R,6S)-3,4,5-trihydroxy-6-(5-(5-hydroxy-7-(2-hydroxyethoxy)-4-oxo-3-((2S,3R,4S,5S,6R)-3,4,5-trihydroxy-6-(((2R,3R,4R,5R,6S)-3,4,5-trihydroxy-6-methyltetrahydro-2H-pyran-2-yloxy)methyl)tetrahydro-2H-pyran-2-yloxy)-4H-chromen-2-yl)-2-methoxyphenoxy)tetrahydro-2H-pyran-2-carboxylic acid formation at 500 mg/kg, ip measured after 60 mins by LC-DAD-TOF-MS analysis; type: ADME, organism-based; set-up: dose 500 mg/kg, route intraperitoneal; settings: in vivo, 1 h
[17] = Drug metabolism in BALB/c mouse bile assessed as 5-hydroxy-2-(3-hydroxy-4-methoxyphenyl)-7-(2-hydroxyethoxy)-3-((2S,3R,4S,5S,6R)-3,4,5-trihydroxy-6-(hydroxymethyl)tetrahydro-2H-pyran-2-yloxy)-4H-chromen-4-one formation at 500 mg/kg, ip measured after 240 mins by LC-DAD-TOF-MS analysis; type: ADME, organism-based; set-up: dose 500 mg/kg, route intraperitoneal; settings: in vivo

SMILES | Relative metabolite level in bile [1] | Retention_time [2] | Drug metabolism [4] | further results
COc1ccc(-c2oc3cc(OCCO)cc(O)c3c(=O)c2O[C@@H]2O[C@H](CO)[C@@H](O)[C@H](O)[C@H]2O)cc1O | 0.9% | 7.6 min |  | Drug metabolism [3]: metabolite_detected
C[C@@H]1O[C@@H](OC[C@H]2O[C@@H](Oc3c(-c4ccc(O[C@@H]5O[C@H](C(=O)O)[C@@H](O)[C@H](O)[C@H]5O)c(O[C@@H]5O[C@H](C(=O)O)[C@@H](O)[C@H](O)[C@H]5O)c4)oc4cc(OCCO)cc(O)c4c3=O)[C@H](O)[C@@H](O)[C@@H]2O)[C@H](O)[C@H](O)[C@H]1O | 0.7% | 7.1 min | metabolite_detected | 
COc1cccc2c1C(=O)c1c(O)c3c(c(O)c1C2=O)C[C@@](O)(C(=O)CO)C[C@@H]3O[C@H]1C[C@H](N)[C@H](O)[C@H](C)O1 [DOXORUBICIN] |  |  |  | half-life [5]: 12.6 h; half-life [6]: 11.5 h
COc1ccc(-c2oc3cc(OCCO)cc(O)c3c(=O)c2O[C@@H]2O[C@H](CO[C@@H]3O[C@@H](C)[C@H](O)[C@@H](O)[C@H]3O)[C@@H](O)[C@H](O)[C@H]2O)cc1OC | 0.5% | 14.8 min | metabolite_detected | 
COc1ccc(-c2oc3cc(OCCO)cc(O)c3c(=O)c2O[C@@H]2O[C@H](CO)[C@@H](O)[C@H](O)[C@H]2O)cc1OC | 0.6% | 12.5 min |  | Drug metabolism [3]: metabolite_detected
C[C@@H]1O[C@@H](OC[C@H]2O[C@@H](Oc3c(-c4ccc(O)c(O)c4)oc4cc(OCC(=O)O)cc(O)c4c3=O)[C@H](O)[C@@H](O)[C@@H]2O)[C@H](O)[C@H](O)[C@H]1O | 2% | 9.7 min | metabolite_detected | 
COc1ccc(-c2oc3cc(OCCO)cc(O)c3c(=O)c2O[C@@H]2O[C@H](CO[C@@H]3O[C@@H](C)[C@H](O)[C@@H](O)[C@H]3O)[C@@H](O)[C@H](O)[C@H]2O)cc1O | 40% | 11.1 min | metabolite_detected | 
C[C@@H]1O[C@@H](OC[C@H]2O[C@@H](Oc3c(-c4ccc(O)c(O)c4)oc4cc(OCCO)cc(O)c4c3=O)[C@H](O)[C@@H](O)[C@@H]2O)[C@H](O)[C@H](O)[C@H]1O [MONOXERUTIN] | 29% | 8.5 min |  | Drug metabolism [7]: metabolite_detected; Drug metabolism [8]: metabolite_detected; half-life [5]: 0.197 h; Drug metabolism [9]: metabolite_detected; Drug metabolism [10]: metabolite_detected; Drug metabolism [11]: metabolite_detected; Drug metabolism [12]: metabolite_detected; Drug metabolism [13]: metabolite_detected; Drug metabolism [14]: metabolite_detected; Drug metabolism [15]: metabolite_detected; half-life [6]: 0.27 h; Drug metabolism [16]: metabolite_detected; Drug metabolism [17]: metabolite_detected
C[C@@H]1O[C@@H](OC[C@H]2O[C@@H](Oc3c(-c4ccc(O)c(O[C@@H]5O[C@H](C(=O)O)[C@@H](O)[C@H](O)[C@H]5O)c4)oc4cc(OCC(=O)O)cc(O)c4c3=O)[C@H](O)[C@@H](O)[C@@H]2O)[C@H](O)[C@H](O)[C@H]1O | 0.3% | 7.8 min | metabolite_detected | 
COc1ccc(-c2oc3cc(OCC(=O)O)cc(O)c3c(=O)c2O[C@@H]2O[C@H](CO[C@@H]3O[C@@H](C)[C@H](O)[C@@H](O)[C@H]3O)[C@@H](O)[C@H](O)[C@H]2O)cc1O[C@@H]1O[C@H](C(=O)O)[C@@H](O)[C@H](O)[C@H]1O | 0.4% | 8.8 min | metabolite_detected | 
COc1ccc(-c2oc3cc(OCCO)cc(O)c3c(=O)c2O[C@@H]2O[C@H](CO[C@@H]3O[C@@H](C)[C@H](O)[C@@H](O)[C@H]3O)[C@@H](O)[C@H](O)[C@H]2O)cc1O[C@@H]1O[C@H](C(=O)O)[C@@H](O)[C@H](O)[C@H]1O | 9% | 6.9 min | metabolite_detected | 
C[C@@H]1O[C@@H](OC[C@H]2O[C@@H](Oc3c(-c4ccc(O)c(O)c4SC[C@H](NC(=O)CC[C@H](N)C(=O)O)C(=O)NCC(=O)O)oc4cc(OCCO)cc(O)c4c3=O)[C@H](O)[C@@H](O)[C@@H]2O)[C@H](O)[C@H](O)[C@H]1O | 0.6% | 3.4 min | metabolite_detected | 
COc1ccc(-c2oc3cc(OCC(=O)O)cc(O)c3c(=O)c2O[C@@H]2O[C@H](CO[C@@H]3O[C@@H](C)[C@H](O)[C@@H](O)[C@H]3O)[C@@H](O)[C@H](O)[C@H]2O)cc1O | 5% | 12.3 min | metabolite_detected | 
